The results in this text go back to ChEMBL document CHEMBL1150003, “Chiral carbocylic nucleosides: The synthesis and antiviral activity of 4-hydroxy and 4-fluorocarbocyclic - 2- deoxyguanosines” (1993).

What all share (type): functional
Holding throughout (details): Chlorocebus sabaeus, read-out: ID50 (the source's name)

The subject of assay [1] is Vero. The experiment in a line: Tested for the concentration required to inhibit HSV-1 strain KOS cytopathic effect by 50% in vero cells.
Assay [2] relates to Vero. The experiment in a line: Tested for the concentration required to inhibit HSV-2 strain 186 cytopathic effect by 50% in vero cells. On the technique in general: Protection from cytopathic effect is a common read-out in antiviral testing.
Assay [3] has as its system Vero. The experiment in a line: Tested for the cytotoxic effect in vero cell monolayers after incubation for 48 hr at 37 degree Centigrade.

Converted amounts (≈) assume the structure as drawn.

On to `Nc1nc(O)c2ncn([C@@H]3C[C@H](CO)[C@@H](O)C3)c2n1`, for which the values for the IC50 in assay [1], in assay [2] and in assay [3] were 0.06 µg/mL (≈ 0.226 µM), 0.44 µg/mL (≈ 1.66 µM) and 300 µg/mL (≈ 1130 µM), respectively.

As to `Nc1nc(O)c2ncn([C@H]3C[C@H](O)[C@@](O)(CO)C3)c2n1`, the IC50 in assay [1] was 0.15 µg/mL (≈ 0.533 µM); in assay [2], 0.26 µg/mL (≈ 0.924 µM); in assay [3], > 900 µg/mL.

Take `Nc1nc(O)c2ncn(C3CC(O)C(F)(CO)C3)c2n1` (stereo not given): the IC50 in assay [1] is 0.15 µg/mL (≈ 0.53 µM); in assay [2], 0.36 µg/mL (≈ 1.27 µM); in assay [3], 100 µg/mL (≈ 353 µM).

Regarding `Nc1nc(O)c2ncn([C@H]3C[C@H](O)[C@](O)(CO)C3)c2n1`, the IC50 was 70 µg/mL (≈ 249 µM) in assay [1], 65 µg/mL (≈ 231 µM) in assay [2] and > 300 µg/mL in assay [3].

Consider `Nc1nc2c(ncn2COCCO)c(=O)[nH]1` [ACYCLOVIR], for which the IC50 in assay [1] is 0.2 µg/mL (≈ 0.888 µM); in assay [2], 0.6 µg/mL (≈ 2.66 µM); in assay [3] it was > 300 µg/mL.
